# Test results taken from US20110130437A1, “SALT FORMS OF A 6-FLUORO-1,2-DIHYDRO-2-OXO-3H-INDOL-3-YLIDENE DERIVATIVE, PROCESS FOR THEIR MANUFACTURE AND PHARMACEUTICAL COMPOSITIONS CONTAINING SAME” (BOEHRINGER INGELHEIM INTERNATIONAL GMBH, priority 2008, published 2011).
# “Also recorded” adds a separate entry of the source.
# Assays:
# Format in all cases: physicochemical
# [1] = Thermal gravimetry (TG) loss of weight; conditions: for loss of weight as measured by thermal gravimetry (TG): crystalline salt forms
# Protocol: The crystalline form of the monohydrochloride salt according to the invention is further characterised by a weight loss of ca. 1.6-1.8% water up to 130° C., as determined by Thermal […]). Under standard conditions, the monohydrochloride salt form of the compound according to the invention is present in the form of the hemihydrate, from which water escapes at a temperature of about 130° C. The TG diagram is also depicted in FIG. 1. For example, the sodium and tartrate salt forms have less good crystallinity properties, which affects the stability of the drug substance. […] Thus, the chloride, succinate and bromide salt forms have unexpectedly better crystalline properties for pharmaceutical development than the sodium and tartrate salt forms.
# [2] = Hygroscopicity of the salt forms; conditions: for hygroscopicity: in words, judged from TG loss of weight
# Description: The monohydrochloride salt form of the compound according to the invention, namely 4-[(Z)-[[4-[(dimethylamino)methyl]phenyl]amino](6-fluoro-1,2-dihydro-2-oxo-3H-indol-3-ylidene)methyl]-benzenepropanoic acid monohydrochloride, is a yellow crystalline powder with irregular shaped crystals. […] For example, the sodium and tartrate salt forms have less good crystallinity properties, which affects the stability of the drug substance. […] Thus, the chloride, succinate and bromide salt forms have unexpectedly better crystalline properties for pharmaceutical development than the sodium and tartrate salt forms.
# [3] = Solubility in aqueous media over the pH range; conditions: over a wide pH-range
# Description: (§1) Furthermore, although all the above mentioned salt forms are characterized by a low solubility over almost the whole pH range, the chloride salt form presents the advantage of a better dissolution rate.
# [4] = Intrinsic dissolution rate
# Description: as §1
# [5] = Crystallinity after intensive milling or compression
# Description: The monohydrochloride salt form of the compound according to the invention, namely 4-[(Z)-[[4-[(dimethylamino)methyl]phenyl]amino](6-fluoro-1,2-dihydro-2-oxo-3H-indol-3-ylidene)methyl]-benzenepropanoic acid monohydrochloride, is a yellow crystalline powder with irregular shaped crystals.
Structure (SMILES),loss of weight as measured by thermal gravimetry (TG) [1],hygroscopicity [2],solubility in aqueous media [3],intrinsic dissolution rate [4],"weight loss of water, determined by Thermal Gravimetry (TG) ([1]; up to 130° C., crystalline form)","hygroscopicity ([2]; listed as monohydrochloride salt form, monohydrochloride)",hygroscopicity ([2]; monohydrochloride),change in crystal modification ([2]; on moisture uptake (slightly hygroscopic)),change in crystallinity [5]
"CN(C)Cc1ccc(N/C(=C2\C(=O)Nc3cc(F)ccc32)c2ccc(CCC(=O)O)cc2)cc1 [bromide, 4-[(Z)-[[4-[(dimethylamino)methyl]phenyl]amino](6-fluoro-1,2-dihydro-2-oxo-3H-indol-3-ylidene)methyl]-benzenepropanoic acid]",ca. 2.2%,slight hygroscopicity,rather low solubility,very slow,,,,,
"CN(C)Cc1ccc(N/C(=C2\C(=O)Nc3cc(F)ccc32)c2ccc(CCC(=O)O)cc2)cc1.Cl [monohydrochloride, 4-[(Z)-[[4-[(dimethylamino)methyl]phenyl]amino](6-fluoro-1,2-dihydro-2-oxo-3H-indol-3-ylidene)methyl]-benzenepropanoic acid monohydrochloride]",ca. 1.7%,,rather low solubility,acceptable fast,1.6-1.8%,slightly hygroscopic; also recorded: slight hygroscopicity,slight hygroscopicity,no change in crystal modification is observed,No significant change in crystallinity
"CN(C)Cc1ccc(N/C(=C2\C(=O)Nc3cc(F)ccc32)c2ccc(CCC(=O)O)cc2)cc1 [sodium, 4-[(Z)-[[4-[(dimethylamino)methyl]phenyl]amino](6-fluoro-1,2-dihydro-2-oxo-3H-indol-3-ylidene)methyl]-benzenepropanoic acid]",ca. 15%,strong hygroscopicity,,,,,,,
"CN(C)Cc1ccc(N/C(=C2\C(=O)Nc3cc(F)ccc32)c2ccc(CCC(=O)O)cc2)cc1 [succinate, 4-[(Z)-[[4-[(dimethylamino)methyl]phenyl]amino](6-fluoro-1,2-dihydro-2-oxo-3H-indol-3-ylidene)methyl]-benzenepropanoic acid]",ca. 1.5%,slight hygroscopicity,rather low solubility,very slow,,,,,
"CN(C)Cc1ccc(N/C(=C2\C(=O)Nc3cc(F)ccc32)c2ccc(CCC(=O)O)cc2)cc1 [tartrate, 4-[(Z)-[[4-[(dimethylamino)methyl]phenyl]amino](6-fluoro-1,2-dihydro-2-oxo-3H-indol-3-ylidene)methyl]-benzenepropanoic acid]",ca. 4.3%,strong hygroscopicity,,,,,,,
